The target in test [1] is Mitogen-activated protein kinase kinase kinase 20 (Homo sapiens, UniProt Q9NYL2). As to the kind of experiment: Binding affinity to wild-type human partial length ZAK (M1 to L331 residues) expressed in bacterial expression system assessed as residual binding level at 100 nM by Kinomescan method relative to control.
Test [2] addresses Mitogen-activated protein kinase kinase kinase kinase 5 (Homo sapiens, UniProt Q9Y4K4). The test can be described thus: Binding affinity to wild-type human partial length MAP4K5 (M1 to P297 residues) expressed in bacterial expression system assessed as residual binding level at 100 nM by Kinomescan method relative to control.
Test [3] addresses T1, Dual specificity mitogen-activated protein kinase kinase 7 (Homo sapiens) (UniProt O14733).
T1 sequence (whole entry): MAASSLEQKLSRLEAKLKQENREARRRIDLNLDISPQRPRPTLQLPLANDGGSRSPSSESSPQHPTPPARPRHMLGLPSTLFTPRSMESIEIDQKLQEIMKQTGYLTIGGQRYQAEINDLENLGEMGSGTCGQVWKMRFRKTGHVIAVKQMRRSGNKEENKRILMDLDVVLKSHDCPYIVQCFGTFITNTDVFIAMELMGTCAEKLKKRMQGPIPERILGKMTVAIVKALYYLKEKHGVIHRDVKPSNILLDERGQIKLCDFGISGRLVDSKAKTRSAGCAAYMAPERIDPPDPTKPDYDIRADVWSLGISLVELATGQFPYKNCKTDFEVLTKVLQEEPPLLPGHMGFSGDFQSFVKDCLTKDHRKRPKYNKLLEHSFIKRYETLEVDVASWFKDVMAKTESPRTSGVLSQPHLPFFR
As to the kind of experiment: Binding affinity to wild-type human full length MKK7 (M1 to R419 residues) expressed in mammalian expression system assessed as residual binding level at 100 nM by Kinomescan method relative to control.

Sequence of Mitogen-activated protein kinase kinase kinase 20 (Q9NYL2 2-800 limits assumed): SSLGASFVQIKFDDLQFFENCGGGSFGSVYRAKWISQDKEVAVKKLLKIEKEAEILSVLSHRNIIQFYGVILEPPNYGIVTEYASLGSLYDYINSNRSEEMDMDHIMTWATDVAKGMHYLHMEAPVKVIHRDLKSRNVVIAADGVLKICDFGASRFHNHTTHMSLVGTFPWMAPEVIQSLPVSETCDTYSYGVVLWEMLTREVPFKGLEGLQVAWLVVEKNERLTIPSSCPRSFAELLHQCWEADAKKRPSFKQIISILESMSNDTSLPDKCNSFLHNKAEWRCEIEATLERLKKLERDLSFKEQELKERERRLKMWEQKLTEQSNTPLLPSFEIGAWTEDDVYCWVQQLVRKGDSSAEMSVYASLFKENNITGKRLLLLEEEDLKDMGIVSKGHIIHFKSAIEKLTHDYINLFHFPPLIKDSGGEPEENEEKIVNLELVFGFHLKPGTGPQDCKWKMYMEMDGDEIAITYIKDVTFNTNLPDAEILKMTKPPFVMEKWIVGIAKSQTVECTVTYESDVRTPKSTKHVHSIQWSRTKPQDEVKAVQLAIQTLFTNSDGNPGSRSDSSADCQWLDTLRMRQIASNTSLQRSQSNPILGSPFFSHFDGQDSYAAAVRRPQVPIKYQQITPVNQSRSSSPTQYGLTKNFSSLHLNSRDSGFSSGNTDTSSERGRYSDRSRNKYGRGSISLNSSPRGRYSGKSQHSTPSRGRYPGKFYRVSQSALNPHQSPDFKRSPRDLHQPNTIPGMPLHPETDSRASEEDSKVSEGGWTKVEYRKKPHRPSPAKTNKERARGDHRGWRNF
Sequence of Mitogen-activated protein kinase kinase kinase kinase 5 (Q9Y4K4 whole entry, looked up, the tested form may be a part): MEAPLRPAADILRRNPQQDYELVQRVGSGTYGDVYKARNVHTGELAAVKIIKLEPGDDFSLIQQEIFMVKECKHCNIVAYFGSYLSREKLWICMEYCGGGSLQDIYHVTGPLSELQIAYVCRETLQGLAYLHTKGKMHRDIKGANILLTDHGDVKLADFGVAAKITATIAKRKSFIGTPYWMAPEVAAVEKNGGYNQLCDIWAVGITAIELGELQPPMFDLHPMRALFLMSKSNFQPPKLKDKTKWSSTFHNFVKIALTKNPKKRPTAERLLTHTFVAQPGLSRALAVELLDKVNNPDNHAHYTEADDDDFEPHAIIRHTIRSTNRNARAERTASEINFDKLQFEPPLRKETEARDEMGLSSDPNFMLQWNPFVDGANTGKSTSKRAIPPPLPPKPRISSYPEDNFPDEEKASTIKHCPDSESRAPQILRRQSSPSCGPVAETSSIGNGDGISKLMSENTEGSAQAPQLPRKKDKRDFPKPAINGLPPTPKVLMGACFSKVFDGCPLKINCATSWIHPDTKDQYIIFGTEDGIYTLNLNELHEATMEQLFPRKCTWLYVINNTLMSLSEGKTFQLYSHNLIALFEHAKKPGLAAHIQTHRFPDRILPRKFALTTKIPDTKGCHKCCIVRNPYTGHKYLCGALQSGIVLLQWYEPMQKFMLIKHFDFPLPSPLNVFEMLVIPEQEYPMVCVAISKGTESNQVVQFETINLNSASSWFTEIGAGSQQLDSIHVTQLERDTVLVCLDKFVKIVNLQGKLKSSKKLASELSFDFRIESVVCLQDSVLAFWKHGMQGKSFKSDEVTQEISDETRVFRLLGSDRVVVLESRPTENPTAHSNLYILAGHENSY

Consider `CCCS(=O)(=O)Nc1ccc(F)c(C(=O)c2n[nH]c3ncc(-c4ccc(OC)cc4Cl)cc23)c1F`, for which the Activity in test [1] is 74%; in test [2], 53%; in test [3], 100%.
For `CCCS(=O)(=O)Nc1ccc(F)c(C(=O)c2n[nH]c3ncc(-c4ccccc4C)cc23)c1F`, the values for the Activity in test [1], in test [2] and in test [3] were 41%, 67% and 100%, respectively.
In the case of `CCCS(=O)(=O)Nc1ccc(F)c(C(=O)c2n[nH]c3ncc(-c4ccccc4)cc23)c1F`, the results for the Activity in test [1], in test [2] and in test [3] were 1.9%, 24% and 100%, respectively.
On to `CCCS(=O)(=O)Nc1ccc(F)c(C(=O)c2n[nH]c3ncc(-c4ccc(C)c(C)c4)cc23)c1F`, for which the Activity in test [1] was found to be 24%; in test [2] it was 20%; in test [3] it was 100%.
For the molecule `CCCS(=O)(=O)Nc1ccc(F)c(C(=O)c2n[nH]c3ncc(-c4ccc(NS(C)(=O)=O)cc4)cc23)c1F`, the Activity in test [1] was determined as 4.3%; in test [2] it was 1.1%; in test [3], 100%.
As for `CCCS(=O)(=O)Nc1ccc(F)c(C(=O)c2n[nH]c3ncc(-c4ccc(F)cc4)cc23)c1F`, the Activity in test [1] was determined as 4.8%; in test [2], 59%; in test [3], 100%.
`CCCS(=O)(=O)Nc1ccc(F)c(C(=O)c2n[nH]c3ncc(-c4ccccc4N)cc23)c1F`: the Activity in test [1] was found to be 40%; in test [2], 73%; in test [3], 95%.
Take `CCCS(=O)(=O)Nc1ccc(F)c(C(=O)c2n[nH]c3ncc(-c4cccc(Cl)c4)cc23)c1F`: the Activity was found to be 16% in test [1], 69% in test [2] and 100% in test [3].
Turning to `CCCS(=O)(=O)Nc1ccc(F)c(C(=O)c2n[nH]c3ncc(-c4cccc(F)c4)cc23)c1F`, the Activity in test [1] stood at 12%; in test [2] it was 65%; in test [3] it was 97%.
Take `CCCS(=O)(=O)Nc1ccc(F)c(C(=O)c2n[nH]c3ncc(-c4cccc(N)c4)cc23)c1F`: the results for the Activity in test [1], in test [2] and in test [3] were 2.3%, 3.8% and 86%, respectively.
Consider `CCCS(=O)(=O)Nc1ccc(F)c(C(=O)c2n[nH]c3ncc(-c4ccc(O)cc4)cc23)c1F`, for which the values for the Activity in test [1], in test [2] and in test [3] were 0%, 9.4% and 87%, respectively.
On the same counts, the results for `CS(=O)(=O)Nc1ccc(F)c(C(=O)c2n[nH]c3ncc(-c4ccc(S(N)(=O)=O)cc4)cc23)c1F` are 100%, 99% and 99%.
In the case of `CCCS(=O)(=O)Nc1ccc(F)c(C(=O)c2n[nH]c3ncc(-c4ccccc4OC)cc23)c1F`, the Activity was found to be 36% in test [1], 34% in test [2] and 100% in test [3].
Turning to `CCCS(=O)(=O)Nc1ccc(F)c(C(=O)c2n[nH]c3ncc(-c4cccc([N+](=O)[O-])c4)cc23)c1F`, the Activity was determined as 52% in test [1], 93% in test [2] and 95% in test [3].
On the same counts, the results for `CCCS(=O)(=O)Nc1ccc(F)c(C(=O)c2n[nH]c3ncc(-c4ccc(C(F)(F)F)cc4)cc23)c1F` are 75%, 76% and 100%.
Take `CCCS(=O)(=O)Nc1ccc(F)c(C(=O)c2n[nH]c3ncc(-c4ccc(C(C)(C)C)cc4)cc23)c1F`: the figures for the Activity in test [1], in test [2] and in test [3] were 77%, 97% and 100%, respectively.
On the same counts, the results for `CCCS(=O)(=O)Nc1ccc(F)c(C(=O)c2n[nH]c3ncc(-c4ccc(C)cc4)cc23)c1F` are 5.9%, 25% and 100%.
As to `CCCS(=O)(=O)Nc1ccc(F)c(C(=O)c2n[nH]c3ncc(-c4ccc(C(N)=O)cc4)cc23)c1F`, the Activity in test [1] is 8.1%; in test [2], 10%; in test [3], 99%.
With `CCCS(=O)(=O)Nc1ccc(F)c(C(=O)c2n[nH]c3ncc(-c4ccc(N)cc4)cc23)c1F`, the Activity in test [1] is 2.7%; in test [2] it was 1.3%; in test [3], 93%.
The like results for `CCCS(=O)(=O)Nc1ccc(F)c(C(=O)c2n[nH]c3ncc(-c4ccc(C(=O)O)cc4)cc23)c1F` were, in that order, 7.5%, 75% and 27%.
Regarding `CCCS(=O)(=O)Nc1ccc(F)c(C(=O)c2n[nH]c3ncc(-c4ccccc4Cl)cc23)c1F`, the Activity was found to be 64% in test [1], 96% in test [2] and 100% in test [3].
Turning to `CCCS(=O)(=O)Nc1ccc(F)c(C(=O)c2n[nH]c3ncc(-c4cc(Cl)cc(Cl)c4)cc23)c1F`, the Activity in test [1] was determined as 66%; in test [2], 99%; in test [3] it was 100%.
On to `CCCS(=O)(=O)Nc1ccc(F)c(C(=O)c2n[nH]c3ncc(-c4ccc(S(N)(=O)=O)cc4C)cc23)c1F`, for which the values for the Activity in test [1] and in test [3] were 94% and 100%, respectively.
Regarding `CCCS(=O)(=O)Nc1ccc(F)c(C(=O)c2n[nH]c3ncc(-c4cccc(O)c4)cc23)c1F`, the Activity in test [1] amounted to 0.95%; in test [2] it was 8%; in test [3] it was 100%.
Regarding `CCCS(=O)(=O)Nc1ccc(F)c(C(=O)c2n[nH]c3ncc(-c4cccc(OC)c4)cc23)c1F`, the Activity in test [1] worked out at 23%; in test [2], 24%; in test [3], 100%.
The like results for `CCCS(=O)(=O)Nc1ccc(F)c(C(=O)c2n[nH]c3ncc(-c4ccc(S(C)(=O)=O)cc4)cc23)c1F` were, in that order, 21%, 14% and 100%.
For `CCCS(=O)(=O)Nc1ccc(F)c(C(=O)c2n[nH]c3ncc(-c4ccc(F)cc4C)cc23)c1F`, the figures for the Activity in test [1], in test [2] and in test [3] were 65%, 55% and 100%, respectively.
On the same counts, the results for `CCCCS(=O)(=O)Nc1ccc(F)c(C(=O)c2n[nH]c3ncc(-c4ccc(S(N)(=O)=O)cc4)cc23)c1F` are 100%, 100% and 100%.
In the case of `CCCS(=O)(=O)Nc1ccc(F)c(C(=O)c2n[nH]c3ncc(-c4ccc(S(N)(=O)=O)cc4Cl)cc23)c1F`, the Activity in test [1] and in test [3] was 100% throughout.
`CCCS(=O)(=O)Nc1ccc(F)c(C(=O)c2n[nH]c3ncc(-c4ccc(Cl)cc4Cl)cc23)c1F`: the Activity in test [1] was 99%; in test [2] it was 100%; in test [3] it was 96%.
Take `CCCS(=O)(=O)Nc1ccc(F)c(C(=O)c2n[nH]c3ncc(-c4ccc(S(=O)(=O)NCC)cc4)cc23)c1F`: the values for the Activity in test [1], in test [2] and in test [3] were 32%, 26% and 100%, respectively.
For `CCCS(=O)(=O)Nc1ccc(F)c(C(=O)c2n[nH]c3ncc(-c4cccc(C(F)(F)F)c4)cc23)c1F`, the results for the Activity in test [1], in test [2] and in test [3] were 44%, 98% and 100%, respectively.
In the case of `CCCS(=O)(=O)Nc1ccc(F)c(C(=O)c2n[nH]c3ncc(-c4ccc(S(=O)(=O)NC)cc4)cc23)c1F`, the Activity in test [1] was 33%; in test [2] it was 17%; in test [3], 100%.
Consider `CCCS(=O)(=O)Nc1ccc(F)c(C(=O)c2n[nH]c3ncc(-c4ccc(Cl)c(C(F)(F)F)c4)cc23)c1F`, for which the results for the Activity in test [1], in test [2] and in test [3] were 20%, 16% and 100%, respectively.
On the same counts, the results for `CCCS(=O)(=O)Nc1ccc(F)c(C(=O)c2n[nH]c3ncc(-c4ccc(S(N)(=O)=O)cc4F)cc23)c1F` are 100%, 77% and 100%.
The like results for `CCCS(=O)(=O)Nc1ccc(F)c(C(=O)c2n[nH]c3ncc(-c4cccc(C)c4)cc23)c1F` were, in that order, 5.5%, 18% and 100%.
On to `CCCS(=O)(=O)Nc1ccc(F)c(C(=O)c2n[nH]c3ncc(-c4ccc(C(C)C)cc4)cc23)c1F`, for which the values for the Activity in test [1], in test [2] and in test [3] were 92%, 89% and 98%, respectively.
The like results for `CCCS(=O)(=O)Nc1ccc(F)c(C(=O)c2n[nH]c3ncc(-c4ccc(N(C)C)cc4)cc23)c1F` were, in that order, 2.2%, 31% and 100%.
In the case of `CCCS(=O)(=O)Nc1ccc(F)c(C(=O)c2n[nH]c3ncc(-c4ccc([N+](=O)[O-])cc4)cc23)c1F`, the Activity in test [1] is 23%; in test [2], 61%; in test [3], 100%.
On the same counts, the results for `CCCS(=O)(=O)Nc1ccc(F)c(C(=O)c2n[nH]c3ncc(-c4ccc(Cl)c(Cl)c4)cc23)c1F` are 85%, 100% and 100%.
The like results for `CCCS(=O)(=O)Nc1ccc(F)c(C(=O)c2n[nH]c3ncc(-c4ccccc4O)cc23)c1F` were, in that order, 9.7%, 39% and 100%.
Turning to `CCCS(=O)(=O)Nc1ccc(F)c(C(=O)c2n[nH]c3ncc(-c4ccc(-c5nnn[nH]5)cc4)cc23)c1F`, the Activity in test [1] was 20%; in test [2], 81%; in test [3] it was 64%.

For the origin of these results see ChEMBL document CHEMBL4811244, “Design and synthesis of 1H-pyrazolo[3,4-b]pyridines targeting mitogen-activated protein kinase kinase 4 (MKK4) - A promising target for liver regeneration” (Eur J Med Chem, 2021).
